Like-named read-outs stand apart in the source and are kept apart here.
Key:
[1] = rat, in vivo
in vivo = conditions: male, Sprague-Dawley, rat, 100 ug/kg
[2] = in vivo; cited from earlier work

In the case of `CSCC[C@@H]1NC(=O)[C@H](CC(C)C)NC(=O)[C@H](CCCNC(=N)N)NC(=O)[C@H](CO)NC(=O)[C@@H]2CSSC[C@@H]3NC(=O)[C@H](CO)NC(=O)CNC(=O)[C@H]([C@@H](C)O)NC(=O)[C@H](CSSC[C@H](N)C(=O)N[C@@H](CCCCN)C(=O)NCC(=O)N[C@@H](CCCCN)C(=O)NCC(=O)N[C@@H](C)C(=O)N[C@@H](CCCCN)C(=O)N2)NC(=O)[C@H](CSSC[C@@H](C(N)=O)NC(=O)[C@H](CCCCN)NC(=O)CNC(=O)[C@H](CO)NC(=O)[C@H](CCCNC(=N)N)NC3=O)NC(=O)[C@H](CC(=O)O)NC(=O)[C@H](Cc2ccc(O)cc2)NC1=O` [ziconotide, Ziconotide], the “AUC0-6 in CSF” value [1] is reported as 1.57 ± 0.44 µg·min/mL, the “Cmax in CSF” value [1] is reported as 33.55 ± 7.39 ng/mL and the “Tmax in CSF” value [1] is reported as 0.25 h. For the same compound, the “bioavailability (AUC0-6) in CSF, fold less than i.v administration” value [1] was ~ 3 fold, the “elimination rate constant in CSF” value [1] was 1.01 ± 0.34 h⁻¹ and the “AUC0-6 in CSF” value ([1]; iv) was 4.98 ± 0.98 µg·min/mL. The “Cmax in CSF” value ([1]; iv) was 37.78 ± 6.8 ng/mL, the “Tmax in CSF” value ([1]; iv) was 2 h and the level at 0.25 h (in vivo) was 992 ± 76.4 ng/mL. For the same compound, the occurrence of meningitis [2] was 3%.
